This note sets out measurements from patent publication EP0200406A2, “Novel amino acid derivatives” (Kissei Pharmaceutical Co Ltd, priority 1985, dated 1986).

Test [1] concerns the target T1, renin (Homo sapiens, UniProt P00797).
T1 sequence (P00797 67-406): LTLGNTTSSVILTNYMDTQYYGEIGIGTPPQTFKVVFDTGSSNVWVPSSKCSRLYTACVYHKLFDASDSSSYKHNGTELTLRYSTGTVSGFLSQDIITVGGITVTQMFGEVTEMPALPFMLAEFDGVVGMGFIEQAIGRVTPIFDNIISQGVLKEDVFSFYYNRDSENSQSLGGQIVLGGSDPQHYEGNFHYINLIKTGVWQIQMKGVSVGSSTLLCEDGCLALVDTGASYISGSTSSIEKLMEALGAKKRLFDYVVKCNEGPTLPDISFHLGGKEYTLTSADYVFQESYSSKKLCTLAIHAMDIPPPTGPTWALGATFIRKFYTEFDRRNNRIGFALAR
The experiment in a line: Human renin-sheep renin substrate reaction system in vitro. The class given is biochemical. Particulars: purified human renin, semipurified sheep renin substrate, pH 7.4, 15 minutes at 37°C, angiotensin I by radioimmunoassay; read-out: IC50 molar concentration. On the procedure:
To a mixture containing 200 µl of a 125 mM pyrophosphate buffer (pH 7.4), 25 µl of a 20 mM aqueous solution of L-phenylalanyl-L-alanyl-L-prolin as an angiotensin cnverting enzyme inhibitor, 50 µ01 of semipurified sheep renin substrate (2000 ng angiotensin I/ml), 50 µl of dimethyl sulfoxide solution of an amino acid compound of the present invention and 150 µl of deionized water was added 25 µl of purified human renin (20-30 ng angiotensin I/ml/hr. The mixture was incubated for 15 minutes on a water bath at 37°C, and the reaction mixture was allowed to stand for 5 minutes on a water bath at 100°C to stop the reaction. After cooling, 200 µl of the solution were taken up and the amount of angiotensin I produced by the addition of renin was determined by radiommunoassay. The inhibitory effect was calculated by the following equation.
As a control, the same procedure as above was carried out by using 50 µl of dimethyl sulfoxide alone in place of the 50 µl of dimethyl sulfoxide solution containing an amino acid compound of the present invention.

Test [2] has as its target T1, renin. The experiment in a line: Renin inhibitory effect in a human high renin plasma. Particulars: pH 7, 60 minutes at 37°C, angiotensin I by radioimmunoassay, read-out: IC50 (molar concentration). Set-up: from tissue; host or cells: human high renin plasma. The class given is biochemical. On the procedure:
A mixture of 350 µl of a 0.5 M phosphate buffer containing 14 mM EDTA 2Na and a 0.3% neomycin sulfate, which was adjusted to the pH of 7, 50 µl of a 20 mM an aqueous solution of L-phenylalanyl-L-alanyl-L-prolin as an angiotensin converting enzyme inhibitor and 100 µl of dimethyl sulfoxide solution containing an amino acid compound of the present invention was added to 500 µl of human high renin plasma, and 200 µl of the mixture was incubated at 4°C in an ice bath, and remaining mixture (800 µl) was incubated for 60 minutes at 37°C in a water bath. A 200 µl sample was withdrawn from the incubated mixture, chilled immediately in an ice bath, and the amount (A) of angiotensin I produced was determined by radioimmunoassay.
Also, the amount (B) of angiotensin I produced in the incubated mixture at 4°C in an ice bath was determined by radioimmunoassy.
As a control, the same procedure as above was carried out by using 100 µl of dimethyl sulfoxide alone in place of the 100µl of dimethyl sulfoxide solution containing an amino acid compound of the present invention.
The renin inhibitory effect in human plasa was calculated by taking the amount of angiotensin I - (A) from the amount of angiotensin I (B). The inhibotory effect was calculated by the following equation. [formula]

A further test relates to common marmoset. The experiment in a line: Hypotensive effect in marmoset. Particulars: orally 30 mg/kg, conscious male marmosets in high renin state (furosemide), Control 103.5. Type of test: in vivo. On the procedure: The experiment was carrried out by using common marmoset as described in K.G. Hofbauer et al., Clinical and Experimental hypertension, Vol. A5, Nos. 7 & 8 (1983), pages 1237-1247.
Furosemide was orally administered three times to common marmoset at 15 mg per kilogram per day every other day to create a high renin state. Blood pressure of consious marmoset was measured 2 days after the last administration of furosemide.
Three consious male marmosets marmosets weighing 305-345 g were fixed. Mean blood pressure at tail artery was recorded on pretismograph instrument. The amino acid compound, of the present invention isopropyl (2RS. 3S)-3-{N-[2-(1-naphthylmethyl)-3-(morpholinocarbonylpropionyl]-L-histidyl}amino-2-hydroxy-5-methylhexanoate and administered orally at 30 mg/kg by using a catheter. The results obtained are shown below.

Structures are written as SMILES.

Take `CNC(=O)C(O)[C@H](CC(C)C)NC(=O)[C@H](Cc1c[nH]cn1)NC(=O)C(CC(=O)N1CCOCC1)Cc1cccc2ccccc12` (mixture of isomers) [Example 3, (2RS, 3S)-3-{N-[2-(1-Naphthylmethyl)-3-(morpholinocarbonyl)propionyl]-L-histidyl}amino-2-hydroxy-5-methylhexanoylmethylamide]: the IC50 on renin [1] was determined as 340 nM.

Consider `CNC(=O)C(O)[C@H](CC(C)C)NC(=O)[C@H](Cc1c[nH]cn1)NC(=O)C(CC(=O)N1CCCCC1)Cc1cccc2ccccc12` (mixture of isomers) [Example 7, (2RS, 3S)-3-{N-[2-(1-Naphthylmethyl)-3-(piperidinocarbonyl)propionyl]-L-histidyl}amino-2-hydroxy-5-methylhexanoylmethylamide], for which the IC50 at renin [1] amounted to 690 nM; on renin [2] it was 5200 nM.

On to `CCNC(=O)CC(Cc1cccc2ccccc12)C(=O)N[C@@H](Cc1c[nH]cn1)C(=O)N[C@@H](CC(C)C)C(O)C(=O)OC` (mixture of isomers) [Example 10, Methyl (2RS, 3S)-3-{N-[2-(1-naphthylmethyl)-3-(ethylcarbamoyl)propionyl]-L-histidyl}amino-2-hydroxy-5-methylhexanoate], for which the IC50 at renin [1] was 630 nM.

Regarding `CC(C)C[C@H](NC(=O)[C@H](Cc1cnc[nH]1)NC(=O)C(CC(=O)N1CCOCC1)Cc1cccc2ccccc12)C(O)C(=O)OC(C)C` (stereo partly drawn) [Example 1], the Mean blood pressure is 88.7 mmHg in the test on common marmoset (0.5 hours after administration); 85.6 mmHg in the test with common marmoset (1 hour after administration); 87.2 mmHg in the test on common marmoset (2 hours after administration); 89.3 mmHg in the test with common marmoset (3 hours after administration); 92.4 mmHg with common marmoset (5 hours after administration); 92.3 mmHg in the test with common marmoset (7 hours after administration). For the same compound, the Mean blood pressure is 92.8 mmHg with common marmoset (9 hours after administration) and 101.9 mmHg with common marmoset (24 hours after administration).

Consider `CC(C)C[C@H](NC(=O)[C@H](Cc1c[nH]cn1)NC(=O)C(CC(=O)N1CCCCC1)Cc1cccc2ccccc12)C(O)C(=O)OC(C)C` (stereo partly drawn) [Example 5, lsopropyl (2RS, 3S)-3-{N-[2-(1-Naphthytmethyl)-3-(piperidinocarbonyl)propionyl}-t-hisfidyl)amino-2-hydroxy-5-methylhexanoate], for which the IC50 was found to be 28 nM at renin [1] and 88 nM at renin [2].

Turning to `COC(=O)C(O)[C@H](CC(C)C)NC(=O)[C@H](Cc1c[nH]cn1)NC(=O)C(CC(=O)N1CCCC1)Cc1cccc2ccccc12` (stereo partly drawn) [Example 8, Methyl (2RS, 3S)-3-{N-[2-(1-naphthylmethyl)-3-(pyrroiidinocarbonyl)propionyl]-L-histidyl}amino-2-hydroxy-5-methylhexanoate], the values for the IC50 on renin [1] and at renin [2] were 69 nM and 62 nM, respectively.

Regarding `COC(=O)C[C@H](O)[C@H](CC(C)C)NC(=O)[C@H](Cc1c[nH]cn1)NC(=O)C(CC(=O)N1CCOCC1)Cc1cccc2ccccc12` (stereo partly drawn) [Example 11, Methyl N-[2-(1-naphthylmethyl)-3-(morpholinocarbonyl)propionyl]-L-histidyistatinate], the IC50 at renin [1] is 210 nM.

As for `CC(C)CCNC(=O)C[C@H](O)[C@H](CC(C)C)NC(=O)[C@H](Cc1c[nH]cn1)NC(=O)C(CC(=O)N1CCOCC1)Cc1cccc2ccccc12` (stereo partly drawn) [Example 13, N-[2-(1-Naphthyfmethyl)-3-(morpholinocarbouyl)-propionyl]-L-histidyl-statylisoamylamide], the IC50 on renin [1] stood at 36 nM.
